Source: article PMC4055737, “Forward Genetic Screening Identifies a Small Molecule That Blocks Toxoplasma gondii Growth by Inhibiting Both Host- and Parasite-Encoded Kinases” (PLoS Pathogens, 2014)
Counter-ions that a name gives are not always drawn.

Biological target: T1, TgMAPK1 (Toxoplasma gondii, UniProt S8EUF0)
T1 construct: gene MAPKL1; full-length, endogenously C-terminally 3×HA-tagged TgMAPK1 (TGGT1_312570), immunoprecipitated from RH strain tachyzoite lysates
Assay: in vitro autokinase assay (γ[…]-ATP) on anti-HA immunoprecipitated kinase, dose response
Assay type: biochemical

T1 sequence (S8EUF0 whole entry): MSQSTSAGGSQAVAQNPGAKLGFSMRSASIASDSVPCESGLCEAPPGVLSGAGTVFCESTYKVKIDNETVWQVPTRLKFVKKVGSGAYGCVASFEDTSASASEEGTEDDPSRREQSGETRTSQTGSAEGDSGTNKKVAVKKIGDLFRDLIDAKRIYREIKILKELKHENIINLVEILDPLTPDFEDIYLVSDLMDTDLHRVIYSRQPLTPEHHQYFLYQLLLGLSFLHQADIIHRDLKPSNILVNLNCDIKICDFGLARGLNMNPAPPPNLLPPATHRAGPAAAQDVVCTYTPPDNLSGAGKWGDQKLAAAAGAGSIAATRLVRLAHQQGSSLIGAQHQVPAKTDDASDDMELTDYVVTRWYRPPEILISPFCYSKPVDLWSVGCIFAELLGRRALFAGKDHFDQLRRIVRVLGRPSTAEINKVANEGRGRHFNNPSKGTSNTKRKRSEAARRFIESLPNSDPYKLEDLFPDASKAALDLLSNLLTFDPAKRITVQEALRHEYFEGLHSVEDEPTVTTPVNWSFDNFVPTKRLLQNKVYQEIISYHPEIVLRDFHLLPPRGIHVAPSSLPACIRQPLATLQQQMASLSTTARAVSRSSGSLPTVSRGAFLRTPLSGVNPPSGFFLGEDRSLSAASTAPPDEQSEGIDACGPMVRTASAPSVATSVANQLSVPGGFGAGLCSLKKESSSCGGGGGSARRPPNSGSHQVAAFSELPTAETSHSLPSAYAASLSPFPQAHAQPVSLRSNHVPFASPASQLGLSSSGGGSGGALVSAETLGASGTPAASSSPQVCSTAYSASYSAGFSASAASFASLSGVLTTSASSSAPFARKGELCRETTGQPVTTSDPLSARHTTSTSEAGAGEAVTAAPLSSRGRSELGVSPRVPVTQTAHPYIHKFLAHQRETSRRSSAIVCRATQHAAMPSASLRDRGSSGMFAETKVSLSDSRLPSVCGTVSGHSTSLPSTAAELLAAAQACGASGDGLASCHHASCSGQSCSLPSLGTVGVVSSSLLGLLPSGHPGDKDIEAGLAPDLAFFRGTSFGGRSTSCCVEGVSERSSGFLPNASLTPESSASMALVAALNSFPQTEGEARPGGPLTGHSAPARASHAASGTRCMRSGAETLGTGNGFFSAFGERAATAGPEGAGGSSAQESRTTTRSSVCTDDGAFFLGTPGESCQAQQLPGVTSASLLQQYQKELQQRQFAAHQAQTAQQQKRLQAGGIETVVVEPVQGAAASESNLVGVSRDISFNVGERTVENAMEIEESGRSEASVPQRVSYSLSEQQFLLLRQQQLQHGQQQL

Cc1cccc(-c2[nH]c(C(C)(C)C)nc2-c2ccc3c(c2)OCO3)n1 [SB505124, 2-(5-benzo[1,3]dioxol-5-yl-2-tert-butyl-3H-imidazol-4-yl)-6-methylpyridine hydrochloride]
IC50: 125 nM
